Measurements published in article PMC9466600 (ACS Medicinal Chemistry Letters, 2022).

Columns and labels:
[1] = prevented HTRF measurement
reader domain of YTHDF3 = reader domain of YTHDF3 (Homo sapiens, UniProt Q7Z739); conditions: from residual signal at 1 mM, Table S1
reader domain of YTHDF1 = reader domain of YTHDF1 (Homo sapiens, UniProt Q9BYJ9); conditions: from residual signal at 1 mM, Table S1
[2] = target: m^6A reader domain of YTHDF2 (Homo sapiens, UniProt Q9Y5A9); conditions: for Potency/affinity for YTHDF2 (in words): HTRF, comparison within Table 1
m^6A reader domain of YTHDF2, sequence (Q9Y5A9 383-579): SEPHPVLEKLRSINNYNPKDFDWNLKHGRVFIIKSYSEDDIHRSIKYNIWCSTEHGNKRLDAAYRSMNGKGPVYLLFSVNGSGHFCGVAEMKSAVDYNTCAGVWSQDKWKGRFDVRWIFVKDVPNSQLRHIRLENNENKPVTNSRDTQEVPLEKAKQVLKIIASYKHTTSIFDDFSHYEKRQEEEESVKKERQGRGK

reader domain of YTHDF1, sequence (Q9BYJ9 361-559): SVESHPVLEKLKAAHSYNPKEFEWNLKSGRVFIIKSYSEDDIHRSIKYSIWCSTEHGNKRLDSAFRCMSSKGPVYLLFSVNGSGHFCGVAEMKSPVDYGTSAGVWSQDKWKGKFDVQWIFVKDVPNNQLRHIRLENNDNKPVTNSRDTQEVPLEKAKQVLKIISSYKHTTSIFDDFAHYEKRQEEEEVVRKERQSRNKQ
reader domain of YTHDF3, sequence (Q7Z739 391-585): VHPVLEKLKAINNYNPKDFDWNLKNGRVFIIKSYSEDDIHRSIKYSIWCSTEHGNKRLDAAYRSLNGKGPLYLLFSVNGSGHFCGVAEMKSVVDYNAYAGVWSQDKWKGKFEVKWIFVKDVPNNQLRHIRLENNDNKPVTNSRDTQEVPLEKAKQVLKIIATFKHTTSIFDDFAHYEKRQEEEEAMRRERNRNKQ

SMILES | Potency/affinity for YTHDF2 (in words) [2] | also measured
CNc1nc(NC)c2ncn(C)c2n1 [Compound 3] | – | Solubility (in words) [1]: poor solubility
CNc1ncnc2c(C)[nH]nc12 [Compound 5] | – | Affinity for YTHDF3 (in words) (reader domain of YTHDF3): weak affinity; Affinity for YTHDF1 (in words) (reader domain of YTHDF1): weak affinity
Cc1[nH]nc2c(NC3CC3)ncnc12 [Compound 6] | lower than the one observed for its parent compound 5 | –
CNc1ncnc2c(-c3ccccc3)[nH]nc12 [Compound 7] | – | Selectivity for YTHDF2 against YTHDF1 and YTHDF3 (in words) ([2]; from residual signal at 1 mM, Table S1): modest selectivity
CNc1ncnc2c(Br)[nH]nc12 [Compound 8] | nor any improvement in potency with respect to the methyl of 5 | –
COc1cc(=O)[nH]c(=O)[nH]1 [Compound 10, 6-methoxyuracil] | does not provide higher affinity | –
O=c1cc(C2CC2)[nH]c(=O)[nH]1 [Compound 11, 6-cyclopropyluracil] | substantially higher | Ligand efficiency ([2]; calculated from YTHDF2 IC50): 0.47 kcal mol^–1 per non-hydrogen atom
CNc1ncnc2c1ncn2[C@@H]1O[C@H](CO)[C@@H](O)[C@H]1O [m^6A, N6-methyladenosine, reference compound] | not able to reduce the emitted signal even at high concentrations | –
